We go through 7 compounds from article PMC8217266 (Clinical Pharmacology and Therapeutics, 2021).

Marks after values point to notes of the source that are not given here. Some results are limits rather than exact numbers.

One series addresses T1, human MATE1 (Homo sapiens, UniProt Q96FL8).
T1 sequence (Q96FL8 1-570): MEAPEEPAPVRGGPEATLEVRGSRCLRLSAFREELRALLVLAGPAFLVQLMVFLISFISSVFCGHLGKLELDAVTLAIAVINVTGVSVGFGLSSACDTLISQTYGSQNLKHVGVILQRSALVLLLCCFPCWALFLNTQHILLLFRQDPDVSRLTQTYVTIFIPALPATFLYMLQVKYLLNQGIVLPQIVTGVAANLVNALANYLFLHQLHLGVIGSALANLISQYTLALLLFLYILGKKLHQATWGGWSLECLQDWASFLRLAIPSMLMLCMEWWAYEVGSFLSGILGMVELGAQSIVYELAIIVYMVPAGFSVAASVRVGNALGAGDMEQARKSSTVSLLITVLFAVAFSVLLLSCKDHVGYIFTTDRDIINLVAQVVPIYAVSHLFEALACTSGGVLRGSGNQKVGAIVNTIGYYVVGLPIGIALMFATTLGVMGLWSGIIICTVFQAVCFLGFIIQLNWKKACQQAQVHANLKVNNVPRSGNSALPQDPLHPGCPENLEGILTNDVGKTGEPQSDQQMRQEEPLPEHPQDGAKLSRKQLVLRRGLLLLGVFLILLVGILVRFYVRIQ
Description: cell-based.

For series [1], the system named is transporters at major organ sites. The series can be described thus: Prediction of transporter-mediated inhibition / DDI potential. Further details: species or system human. The settings on record: of 11 transporters; FDA criteria.
The target in the next series is P-gp (Homo sapiens, UniProt P08183). The series can be described thus: biochemical.
Sequence of P-gp (P08183 whole entry): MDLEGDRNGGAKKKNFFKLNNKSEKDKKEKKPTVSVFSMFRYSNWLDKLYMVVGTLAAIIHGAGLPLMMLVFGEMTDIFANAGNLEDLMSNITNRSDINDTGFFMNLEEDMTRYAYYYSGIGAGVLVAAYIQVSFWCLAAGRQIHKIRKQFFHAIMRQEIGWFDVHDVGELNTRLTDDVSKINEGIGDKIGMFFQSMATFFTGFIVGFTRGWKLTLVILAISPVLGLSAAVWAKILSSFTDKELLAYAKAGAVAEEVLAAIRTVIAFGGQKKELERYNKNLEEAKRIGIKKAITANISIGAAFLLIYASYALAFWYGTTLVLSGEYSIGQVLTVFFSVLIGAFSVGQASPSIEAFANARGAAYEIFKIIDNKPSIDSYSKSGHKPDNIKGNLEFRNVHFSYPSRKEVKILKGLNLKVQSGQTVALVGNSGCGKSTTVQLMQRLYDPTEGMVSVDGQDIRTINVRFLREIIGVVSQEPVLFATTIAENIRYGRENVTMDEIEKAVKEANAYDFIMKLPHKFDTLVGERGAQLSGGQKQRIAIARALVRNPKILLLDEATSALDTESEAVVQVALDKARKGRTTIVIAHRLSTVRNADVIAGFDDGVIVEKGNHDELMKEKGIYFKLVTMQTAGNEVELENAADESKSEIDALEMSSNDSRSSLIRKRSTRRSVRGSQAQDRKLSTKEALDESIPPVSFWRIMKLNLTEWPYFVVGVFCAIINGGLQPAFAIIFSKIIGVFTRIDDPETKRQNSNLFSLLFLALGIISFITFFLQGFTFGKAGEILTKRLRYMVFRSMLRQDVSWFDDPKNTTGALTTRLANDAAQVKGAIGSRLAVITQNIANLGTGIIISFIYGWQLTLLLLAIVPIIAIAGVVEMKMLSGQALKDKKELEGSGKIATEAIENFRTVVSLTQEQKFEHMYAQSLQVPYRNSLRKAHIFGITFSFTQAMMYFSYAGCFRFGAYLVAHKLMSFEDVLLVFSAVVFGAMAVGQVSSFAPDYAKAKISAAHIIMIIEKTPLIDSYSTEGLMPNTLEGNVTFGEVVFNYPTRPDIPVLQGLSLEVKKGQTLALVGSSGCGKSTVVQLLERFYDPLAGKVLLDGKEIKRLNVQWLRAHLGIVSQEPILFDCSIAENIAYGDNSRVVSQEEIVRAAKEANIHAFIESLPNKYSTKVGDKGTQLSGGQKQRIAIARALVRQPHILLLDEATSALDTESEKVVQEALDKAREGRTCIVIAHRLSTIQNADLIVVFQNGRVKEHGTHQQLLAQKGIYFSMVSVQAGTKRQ
Series [2] deals with T2, human OAT3 (Homo sapiens, UniProt Q8TCC7).
T2 sequence (Q8TCC7 1-542): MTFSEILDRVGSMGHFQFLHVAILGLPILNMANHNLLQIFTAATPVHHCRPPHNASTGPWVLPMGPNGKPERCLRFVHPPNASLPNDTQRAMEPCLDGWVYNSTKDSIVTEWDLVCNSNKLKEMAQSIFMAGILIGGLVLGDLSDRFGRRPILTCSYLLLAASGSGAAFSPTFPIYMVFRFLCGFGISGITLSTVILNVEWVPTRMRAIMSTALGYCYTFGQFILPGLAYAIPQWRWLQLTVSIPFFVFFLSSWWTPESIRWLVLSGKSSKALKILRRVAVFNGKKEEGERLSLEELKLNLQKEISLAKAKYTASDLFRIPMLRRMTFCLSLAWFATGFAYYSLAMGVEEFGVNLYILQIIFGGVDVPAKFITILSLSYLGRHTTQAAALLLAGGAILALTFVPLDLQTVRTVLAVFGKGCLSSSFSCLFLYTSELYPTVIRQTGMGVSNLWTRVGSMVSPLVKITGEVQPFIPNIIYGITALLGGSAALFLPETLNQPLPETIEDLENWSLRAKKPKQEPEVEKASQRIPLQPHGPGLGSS
The settings on record: human.

Another series concerns the target T3, human OAT1 (Homo sapiens, UniProt Q4U2R8).
T3 sequence (Q4U2R8 1-563): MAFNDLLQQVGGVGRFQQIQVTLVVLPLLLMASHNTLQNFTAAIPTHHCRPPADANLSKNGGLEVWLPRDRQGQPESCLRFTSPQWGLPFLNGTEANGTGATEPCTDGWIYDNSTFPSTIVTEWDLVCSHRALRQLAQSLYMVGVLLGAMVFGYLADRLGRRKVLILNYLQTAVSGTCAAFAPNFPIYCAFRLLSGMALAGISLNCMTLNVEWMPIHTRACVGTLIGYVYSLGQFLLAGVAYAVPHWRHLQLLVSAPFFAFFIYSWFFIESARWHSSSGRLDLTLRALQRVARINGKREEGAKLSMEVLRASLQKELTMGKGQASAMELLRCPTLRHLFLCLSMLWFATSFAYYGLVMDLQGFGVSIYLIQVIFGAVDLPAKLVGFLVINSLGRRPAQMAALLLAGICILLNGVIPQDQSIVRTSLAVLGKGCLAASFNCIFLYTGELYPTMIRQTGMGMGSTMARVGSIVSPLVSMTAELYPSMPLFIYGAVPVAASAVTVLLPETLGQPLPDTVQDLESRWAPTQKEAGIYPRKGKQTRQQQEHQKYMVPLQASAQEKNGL
The series can be described thus: cell-based.

Series [3] addresses T2, human OAT3. The series can be described thus: cell-based.
Series [4] addresses T4, BCRP (Homo sapiens, UniProt Q9UNQ0).
T4 sequence (Q9UNQ0 1-655): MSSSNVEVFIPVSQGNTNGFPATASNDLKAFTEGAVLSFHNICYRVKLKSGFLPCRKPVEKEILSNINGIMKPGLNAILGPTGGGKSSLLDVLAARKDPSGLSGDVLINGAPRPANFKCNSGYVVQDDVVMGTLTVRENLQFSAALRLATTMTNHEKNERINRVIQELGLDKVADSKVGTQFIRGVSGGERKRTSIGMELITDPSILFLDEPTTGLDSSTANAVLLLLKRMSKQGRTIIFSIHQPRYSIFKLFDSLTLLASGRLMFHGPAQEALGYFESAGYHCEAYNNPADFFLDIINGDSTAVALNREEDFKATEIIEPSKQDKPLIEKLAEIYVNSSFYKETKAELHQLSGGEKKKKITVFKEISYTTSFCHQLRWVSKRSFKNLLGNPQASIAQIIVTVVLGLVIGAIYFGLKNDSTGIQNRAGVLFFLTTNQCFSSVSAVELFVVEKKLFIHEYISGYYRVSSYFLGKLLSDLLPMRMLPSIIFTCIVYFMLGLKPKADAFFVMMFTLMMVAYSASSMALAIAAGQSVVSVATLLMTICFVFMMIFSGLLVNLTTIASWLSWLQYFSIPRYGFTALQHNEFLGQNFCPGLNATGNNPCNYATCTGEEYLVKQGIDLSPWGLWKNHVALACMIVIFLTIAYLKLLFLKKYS
Description: biochemical.

Series [5] has as its target T5, human OCT1 (Homo sapiens, UniProt O15245).
T5 sequence (O15245 1-554): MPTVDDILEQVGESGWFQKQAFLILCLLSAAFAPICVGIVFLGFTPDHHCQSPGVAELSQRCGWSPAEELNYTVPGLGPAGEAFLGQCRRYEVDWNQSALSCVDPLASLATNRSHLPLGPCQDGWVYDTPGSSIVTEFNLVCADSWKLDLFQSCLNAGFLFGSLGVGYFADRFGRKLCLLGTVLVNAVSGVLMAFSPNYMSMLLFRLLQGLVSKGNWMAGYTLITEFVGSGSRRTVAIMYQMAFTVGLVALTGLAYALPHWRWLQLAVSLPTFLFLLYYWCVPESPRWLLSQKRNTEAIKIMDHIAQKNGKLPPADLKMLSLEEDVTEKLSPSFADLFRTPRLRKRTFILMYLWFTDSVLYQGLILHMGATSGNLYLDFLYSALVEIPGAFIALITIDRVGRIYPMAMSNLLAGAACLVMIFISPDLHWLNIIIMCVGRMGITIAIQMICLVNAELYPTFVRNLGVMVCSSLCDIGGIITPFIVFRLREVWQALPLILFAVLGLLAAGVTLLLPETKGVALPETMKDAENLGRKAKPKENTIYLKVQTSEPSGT
The series can be described thus: cell-based.

For another series, the target named is human MATE2 (Homo sapiens, UniProt Q86VL8). The series can be described thus: cell-based.
Sequence of human MATE2 (Q86VL8 1-566 isoform Q86VL8-3): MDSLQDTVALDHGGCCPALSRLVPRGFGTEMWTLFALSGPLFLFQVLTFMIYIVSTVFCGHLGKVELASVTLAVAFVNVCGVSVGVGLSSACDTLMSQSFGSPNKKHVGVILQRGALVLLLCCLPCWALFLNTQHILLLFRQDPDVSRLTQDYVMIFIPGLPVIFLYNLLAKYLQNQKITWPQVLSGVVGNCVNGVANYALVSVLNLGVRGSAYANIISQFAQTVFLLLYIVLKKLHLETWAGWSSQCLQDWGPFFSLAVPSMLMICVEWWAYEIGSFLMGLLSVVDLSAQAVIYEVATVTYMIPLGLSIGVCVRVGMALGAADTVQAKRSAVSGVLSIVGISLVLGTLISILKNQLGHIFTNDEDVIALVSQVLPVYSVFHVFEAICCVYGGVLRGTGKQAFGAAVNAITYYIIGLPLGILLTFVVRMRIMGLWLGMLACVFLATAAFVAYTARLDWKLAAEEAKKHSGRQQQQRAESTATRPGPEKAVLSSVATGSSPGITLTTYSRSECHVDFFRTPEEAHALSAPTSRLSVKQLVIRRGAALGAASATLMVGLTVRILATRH
The target of the next series is T6, human OATP2B1 (Homo sapiens, UniProt O94956).
T6 sequence (O94956 1-709): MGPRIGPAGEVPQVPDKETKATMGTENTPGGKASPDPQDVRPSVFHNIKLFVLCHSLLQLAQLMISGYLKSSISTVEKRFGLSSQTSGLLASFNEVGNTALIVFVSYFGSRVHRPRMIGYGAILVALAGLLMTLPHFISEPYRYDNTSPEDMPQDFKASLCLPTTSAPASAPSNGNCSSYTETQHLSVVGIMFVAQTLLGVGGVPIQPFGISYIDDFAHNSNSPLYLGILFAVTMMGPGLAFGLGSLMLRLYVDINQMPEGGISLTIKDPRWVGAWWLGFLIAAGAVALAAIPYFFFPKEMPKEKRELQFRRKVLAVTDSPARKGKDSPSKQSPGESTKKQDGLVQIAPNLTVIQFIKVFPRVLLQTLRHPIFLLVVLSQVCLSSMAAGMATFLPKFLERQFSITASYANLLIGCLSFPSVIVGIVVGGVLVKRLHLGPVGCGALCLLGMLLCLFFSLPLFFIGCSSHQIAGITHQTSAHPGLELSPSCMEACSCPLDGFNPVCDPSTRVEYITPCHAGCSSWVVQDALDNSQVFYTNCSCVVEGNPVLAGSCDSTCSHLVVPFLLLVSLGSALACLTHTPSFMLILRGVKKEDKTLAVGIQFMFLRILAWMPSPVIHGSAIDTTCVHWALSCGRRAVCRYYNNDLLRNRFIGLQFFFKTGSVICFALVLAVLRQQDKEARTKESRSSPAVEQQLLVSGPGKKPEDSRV
The series can be described thus: cell-based. The settings on record: IC50 OATP2B1, experimental, mean ± SD; stable cells; substrate ES.

For the next series, the target named is T7, human OATP1B1 (Homo sapiens, UniProt Q9Y6L6).
T7 sequence (Q9Y6L6 1-691): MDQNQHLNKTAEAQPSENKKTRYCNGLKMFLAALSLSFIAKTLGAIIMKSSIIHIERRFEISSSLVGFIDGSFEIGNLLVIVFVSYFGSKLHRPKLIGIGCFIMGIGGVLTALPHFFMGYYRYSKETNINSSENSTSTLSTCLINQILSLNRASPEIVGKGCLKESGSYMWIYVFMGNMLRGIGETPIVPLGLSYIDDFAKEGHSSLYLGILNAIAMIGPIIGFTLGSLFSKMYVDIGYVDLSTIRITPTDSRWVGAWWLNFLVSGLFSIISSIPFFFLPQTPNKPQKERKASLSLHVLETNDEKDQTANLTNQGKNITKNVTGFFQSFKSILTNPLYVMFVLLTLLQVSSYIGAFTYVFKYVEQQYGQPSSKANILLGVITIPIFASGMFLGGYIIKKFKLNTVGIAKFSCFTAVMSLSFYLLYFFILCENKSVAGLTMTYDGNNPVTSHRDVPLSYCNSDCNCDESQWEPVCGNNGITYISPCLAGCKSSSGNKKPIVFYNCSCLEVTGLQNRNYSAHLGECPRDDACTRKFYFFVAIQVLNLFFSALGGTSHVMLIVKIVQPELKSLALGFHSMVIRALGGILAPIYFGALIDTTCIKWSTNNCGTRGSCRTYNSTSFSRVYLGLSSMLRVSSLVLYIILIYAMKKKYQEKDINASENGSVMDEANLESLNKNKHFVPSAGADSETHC
The settings on record: inhibits EG at one-tenth (or lower) the concentration that inhibits ES.

For series [6], the target named is T5, human OCT1. The settings on record: human.
For series [7], the target named is T4, BCRP. The settings on record: cited from earlier work.

Usually IC50 stands for the concentration needed to halve the response being measured. Read a low IC50 as greater potency in that assay. As to `NC(=O)c1nc(F)c[nH]c1=O` [Favipiravir], the IC50 is over 100 µM against human MATE1; 55 µM against P-gp; 52 µM against human OAT1; 84.2 ± 19.5 µM against human OAT3 [3]; over 100 µM against BCRP [4]; over 100 µM against human OCT1 [5]. Besides, the IC50 at human MATE2 was over 100 µM. The “No. of transporters at major organ sites inhibited at clinical concentrations” value in series [1] was 3. Also, at human OAT3 [2], the “Cu,max/IC50 OAT3” value is reported as 3.21.

As to `Cc1oncc1C(=O)Nc1ccc(C(F)(F)F)cc1` [Leflunomide], the IC50 was 9.5 ± 5.5 µM on human MATE1; over 100 µM at P-gp; over 100 µM against human OAT1; over 100 µM on human OCT1 [5]; 81.9 ± 36.1 µM at human OATP2B1. For the same compound, in series [1], the “No. of transporters at major organ sites inhibited at clinical concentrations” value is listed as 2.

For `CCCCc1nc(Cl)c(CO)n1Cc1ccc(-c2ccccc2-c2nn[nH]n2)cc1` [Losartan], the “No. of transporters at major organ sites inhibited at clinical concentrations” value in series [1] was 4. Moreover, the concentration for half-maximal inhibition (IC50) on P-gp was over 100 µM; on BCRP [4], 4.8 ± 1.1 µM; on human OCT1 [5], over 100 µM; on human MATE2 it was over 100 µM; against human OATP2B1 it was 2.5 ± 0.7 µM. Moreover, on human OAT3 [2], the “Cu,max/IC50 OAT3” value is 0.02 ^a. The “potency difference of the inhibitor for [3H]-EG vs [3H]-ES as OATP1B1 probes” value on human OATP1B1 is over 10 fold.

With `COc1ccc2cc1Oc1ccc(cc1)C[C@H]1c3cc(c(OC)cc3CCN1C)Oc1c(OC)c(OC)cc3c1[C@H](C2)N(C)CC3` [Tetrandrine], the IC50 against human MATE1 was 1.2 ± 0.2 µM; at P-gp it was 3.8 ± 1.1 µM; on human OAT1, over 10 µM; at human OAT3 [3], over 10 µM; against BCRP [4], over 10 µM; on human OCT1 [5], 8.6 µM. On human MATE2, this compound registered a concentration for half-maximal inhibition (IC50) of over 10 µM. The “No. of transporters at major organ sites inhibited at clinical concentrations” value in [1] is reported as 1. Moreover, at human OCT1 [6], the “Iu,in,max/IC50 OCT1” value stood at 0.02.

For the compound `O=C1CCC(N2C(=O)c3ccccc3C2=O)C(=O)N1` (stereo not shown) [Thalidomide], the IC50 against human MATE1 is over 100 µM; against P-gp, 65 µM; against human OAT1 it was over 100 µM; at human OAT3 [3], 54.6 ± 2.4 µM; at BCRP [4], over 100 µM; against human OCT1 [5], over 100 µM. This compound also had a 50% inhibitory concentration (IC50) against human MATE2 of over 100 µM. Besides, in series [1], the “No. of transporters at major organ sites inhibited at clinical concentrations” value is reported as 1. In addition, the “Cu,max/IC50 OAT3” value at human OAT3 [2] is recorded as 0.08.

Regarding `CN1CC(=O)N2[C@H](c3ccc4c(c3)OCO4)c3[nH]c4ccccc4c3C[C@@H]2C1=O` [tadalafil], the “inhibition of BCRP (in words)” value at BCRP [7] was “weak inhibitors of BCRP”.

With `CCCc1nc(C)c2c(=O)[nH]c(-c3cc(S(=O)(=O)N4CCN(CC)CC4)ccc3OCC)nn12` [vardenafil], the “inhibition of BCRP (in words)” value on BCRP [7] is recorded as “weak inhibitors of BCRP”.
